{"source": "PubChem BioAssay (NCI)", "assay_in_all_cases": "growth of human tumour cells (NCI), 48 h", "key": {"CAKI-1 renal": {"system": "CAKI-1 renal"}, "U251 CNS": {"system": "U251 CNS"}, "RPMI-8226 leukemia": {"system": "RPMI-8226 leukemia"}, "HOP-18 NSCLC": {"system": "HOP-18 NSCLC"}, "XF 498 CNS": {"system": "XF 498 CNS"}, "SNB-19 CNS": {"system": "SNB-19 CNS"}, "DMS 273 small cell lung": {"system": "DMS 273 small cell lung"}, "OVCAR-3 ovarian": {"system": "OVCAR-3 ovarian"}, "DMS 114 small cell lung": {"system": "DMS 114 small cell lung"}, "SNB-78 CNS": {"system": "SNB-78 CNS"}, "SK-MEL-28 melanoma": {"system": "SK-MEL-28 melanoma"}, "HT29 colon": {"system": "HT29 colon"}, "A549 NSCLC": {"system": "A549 NSCLC"}, "CCRF-CEM leukemia": {"system": "CCRF-CEM leukemia"}, "SF-268 CNS": {"system": "SF-268 CNS"}, "NCI-H23 lung": {"system": "NCI-H23 lung"}, "SF-295 CNS": {"system": "SF-295 CNS"}, "HCT-116 colon": {"system": "HCT-116 colon"}, "LOX IMVI melanoma": {"system": "LOX IMVI melanoma"}, "KM20L2 colon": {"system": "KM20L2 colon"}, "TK-10 renal": {"system": "TK-10 renal"}, "A498 renal": {"system": "A498 renal"}, "RXF 393 renal": {"system": "RXF 393 renal"}, "MOLT-4 leukemia": {"system": "MOLT-4 leukemia"}, "M19-MEL melanoma": {"system": "M19-MEL melanoma"}, "OVCAR-4 ovarian": {"system": "OVCAR-4 ovarian"}, "786-0 renal": {"system": "786-0 renal"}, "SNB-75 CNS": {"system": "SNB-75 CNS"}, "SN12C renal": {"system": "SN12C renal"}, "EKVX NSCLC": {"system": "EKVX NSCLC"}, "RXF-631 renal": {"system": "RXF-631 renal"}, "MALME-3M melanoma": {"system": "MALME-3M melanoma"}, "SF-539 CNS": {"system": "SF-539 CNS"}, "SR leukemia": {"system": "SR leukemia"}, "HCC-2998 colon": {"system": "HCC-2998 colon"}, "HL-60(TB) leukemia": {"system": "HL-60(TB) leukemia"}, "HCT-15 colon": {"system": "HCT-15 colon"}, "SW-620 colon": {"system": "SW-620 colon"}, "NCI-H460 lung": {"system": "NCI-H460 lung"}, "ACHN renal": {"system": "ACHN renal"}, "M14 melanoma": {"system": "M14 melanoma"}, "UO-31 renal": {"system": "UO-31 renal"}, "UACC-62 melanoma": {"system": "UACC-62 melanoma"}, "HOP-62 NSCLC": {"system": "HOP-62 NSCLC"}, "K-562 leukemia": {"system": "K-562 leukemia"}, "HOP-92 NSCLC": {"system": "HOP-92 NSCLC"}, "KM12 colon": {"system": "KM12 colon"}, "COLO 205 colon": {"system": "COLO 205 colon"}, "SK-MEL-5 melanoma": {"system": "SK-MEL-5 melanoma"}, "SK-MEL-2 melanoma": {"system": "SK-MEL-2 melanoma"}, "SK-OV-3 ovarian": {"system": "SK-OV-3 ovarian"}, "OVCAR-8 ovarian": {"system": "OVCAR-8 ovarian"}, "LXFL 529 NSCLC": {"system": "LXFL 529 NSCLC"}, "OVCAR-5 ovarian": {"system": "OVCAR-5 ovarian"}, "IGROV1 ovarian": {"system": "IGROV1 ovarian"}, "UACC-257 melanoma": {"system": "UACC-257 melanoma"}, "DLD-1 colon": {"system": "DLD-1 colon"}}, "note": "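Cultured in 96-well plates, cells were exposed to test compound for 48 hours across five concentrations. At the TGI there is no net growth.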", "data": [{"smiles": "CCCSS[C@H]1NC(=O)[C@H]1NC(=O)COc1ccccc1", "values": [{"measurement": "TGI", "setting": "CAKI-1 renal", "value": 43.6, "unit": "µM"}, {"measurement": "TGI", "setting": "U251 CNS", "value": 31.8, "unit": "µM"}, {"measurement": "TGI", "setting": "RPMI-8226 leukemia", "value": 88.1, "unit": "µM"}, {"measurement": "TGI", "setting": "HOP-18 NSCLC", "value": 66.7, "unit": "µM"}, {"measurement": "TGI", "setting": "XF 498 CNS", "value": 33.8, "unit": "µM"}, {"measurement": "TGI", "setting": "SNB-19 CNS", "value": "> 100", "unit": "µM"}, {"measurement": "TGI", "setting": "DMS 273 small cell lung", "value": 31.2, "unit": "µM"}, {"measurement": "TGI", "setting": "OVCAR-3 ovarian", "value": 31.5, "unit": "µM"}, {"measurement": "TGI", "setting": "DMS 114 small cell lung", "value": 34.5, "unit": "µM"}, {"measurement": "TGI", "setting": "SNB-78 CNS", "value": 60.6, "unit": "µM"}, {"measurement": "TGI", "setting": "SK-MEL-28 melanoma", "value": 30.3, "unit": "µM"}, {"measurement": "TGI", "setting": "HT29 colon", "value": 36.3, "unit": "µM"}, {"measurement": "TGI", "setting": "A549 NSCLC", "value": 67.3, "unit": "µM"}, {"measurement": "TGI", "setting": "CCRF-CEM leukemia", "value": 19.1, "unit": "µM"}, {"measurement": "TGI", "setting": "SF-268 CNS", "value": 40.5, "unit": "µM"}, {"measurement": "TGI", "setting": "NCI-H23 lung", "value": 31.9, "unit": "µM"}, {"measurement": "TGI", "setting": "SF-295 CNS", "value": "> 100", "unit": "µM"}, {"measurement": "TGI", "setting": "HCT-116 colon", "value": 22, "unit": "µM"}, {"measurement": "TGI", "setting": "LOX IMVI melanoma", "value": 30.2, "unit": "µM"}, {"measurement": "TGI", "setting": "KM20L2 colon", "value": 42.4, "unit": "µM"}, {"measurement": "TGI", "setting": "TK-10 renal", "value": 63.9, "unit": "µM"}, {"measurement": "TGI", "setting": "A498 renal", "value": 70.3, "unit": "µM"}, {"measurement": "TGI", "setting": "RXF 393 renal", "value": 29.7, "unit": "µM"}, {"measurement": "TGI", "setting": "MOLT-4 leukemia", "value": 13.2, "unit": "µM"}, {"measurement": "TGI", "setting": "M19-MEL melanoma", "value": 33, "unit": "µM"}, {"measurement": "TGI", "setting": "OVCAR-4 ovarian", "value": 31.9, "unit": "µM"}, {"measurement": "TGI", "setting": "786-0 renal", "value": 31.5, "unit": "µM"}, {"measurement": "TGI", "setting": "SNB-75 CNS", "value": 44, "unit": "µM"}, {"measurement": "TGI", "setting": "SN12C renal", "value": 29.8, "unit": "µM"}, {"measurement": "TGI", "setting": "EKVX NSCLC", "value": 41.4, "unit": "µM"}, {"measurement": "TGI", "setting": "RXF-631 renal", "value": 31.6, "unit": "µM"}, {"measurement": "TGI", "setting": "MALME-3M melanoma", "value": 26.9, "unit": "µM"}, {"measurement": "TGI", "setting": "SF-539 CNS", "value": 29.5, "unit": "µM"}, {"measurement": "TGI", "setting": "SR leukemia", "value": 19.6, "unit": "µM"}, {"measurement": "TGI", "setting": "HCC-2998 colon", "value": 29.9, "unit": "µM"}, {"measurement": "TGI", "setting": "HL-60(TB) leukemia", "value": 5.72, "unit": "µM"}, {"measurement": "TGI", "setting": "HCT-15 colon", "value": 24.9, "unit": "µM"}, {"measurement": "TGI", "setting": "SW-620 colon", "value": 18.2, "unit": "µM"}, {"measurement": "TGI", "setting": "NCI-H460 lung", "value": 31.4, "unit": "µM"}, {"measurement": "TGI", "setting": "ACHN renal", "value": 30.2, "unit": "µM"}, {"measurement": "TGI", "setting": "M14 melanoma", "value": 24.4, "unit": "µM"}, {"measurement": "TGI", "setting": "UO-31 renal", "value": "> 100", "unit": "µM"}, {"measurement": "TGI", "setting": "UACC-62 melanoma", "value": 32.1, "unit": "µM"}, {"measurement": "TGI", "setting": "HOP-62 NSCLC", "value": "> 100", "unit": "µM"}, {"measurement": "TGI", "setting": "K-562 leukemia", "value": 28.6, "unit": "µM"}, {"measurement": "TGI", "setting": "HOP-92 NSCLC", "value": 24.4, "unit": "µM"}, {"measurement": "TGI", "setting": "KM12 colon", "value": 31.6, "unit": "µM"}, {"measurement": "TGI", "setting": "COLO 205 colon", "value": 25, "unit": "µM"}, {"measurement": "TGI", "setting": "SK-MEL-5 melanoma", "value": 54.9, "unit": "µM"}, {"measurement": "TGI", "setting": "SK-MEL-2 melanoma", "value": 33.5, "unit": "µM"}, {"measurement": "TGI", "setting": "SK-OV-3 ovarian", "value": "> 100", "unit": "µM"}, {"measurement": "TGI", "setting": "OVCAR-8 ovarian", "value": 27.6, "unit": "µM"}, {"measurement": "TGI", "setting": "LXFL 529 NSCLC", "value": 18.3, "unit": "µM"}, {"measurement": "TGI", "setting": "OVCAR-5 ovarian", "value": "> 100", "unit": "µM"}, {"measurement": "TGI", "setting": "IGROV1 ovarian", "value": 43.2, "unit": "µM"}, {"measurement": "TGI", "setting": "UACC-257 melanoma", "value": 27.8, "unit": "µM"}, {"measurement": "TGI", "setting": "DLD-1 colon", "value": 23.2, "unit": "µM"}]}]}
